Assay results taken from patent US7998949B2, “Bicyclic heterocycles, drugs containing said compounds, use thereof, and method for production thereof” (Boehringer Ingelheim International GmbH, priority 2007, dated 2011).

What follows are molecules tested against T1, human EGF-R (Homo sapiens, UniProt P00533) (assay: Inhibition of the EGFR-dependent proliferation (EGF-stimulated cell line expressing human EGF-R, Cell Titer 96 assay)). Conditions: murine haematopoietic cell line expressing functional human EGF-R; 20 ng/ml human EGF; 48 hours at 37° C.
T1 construct: expressed in transfected cells
T1 sequence (P00533 25-1210): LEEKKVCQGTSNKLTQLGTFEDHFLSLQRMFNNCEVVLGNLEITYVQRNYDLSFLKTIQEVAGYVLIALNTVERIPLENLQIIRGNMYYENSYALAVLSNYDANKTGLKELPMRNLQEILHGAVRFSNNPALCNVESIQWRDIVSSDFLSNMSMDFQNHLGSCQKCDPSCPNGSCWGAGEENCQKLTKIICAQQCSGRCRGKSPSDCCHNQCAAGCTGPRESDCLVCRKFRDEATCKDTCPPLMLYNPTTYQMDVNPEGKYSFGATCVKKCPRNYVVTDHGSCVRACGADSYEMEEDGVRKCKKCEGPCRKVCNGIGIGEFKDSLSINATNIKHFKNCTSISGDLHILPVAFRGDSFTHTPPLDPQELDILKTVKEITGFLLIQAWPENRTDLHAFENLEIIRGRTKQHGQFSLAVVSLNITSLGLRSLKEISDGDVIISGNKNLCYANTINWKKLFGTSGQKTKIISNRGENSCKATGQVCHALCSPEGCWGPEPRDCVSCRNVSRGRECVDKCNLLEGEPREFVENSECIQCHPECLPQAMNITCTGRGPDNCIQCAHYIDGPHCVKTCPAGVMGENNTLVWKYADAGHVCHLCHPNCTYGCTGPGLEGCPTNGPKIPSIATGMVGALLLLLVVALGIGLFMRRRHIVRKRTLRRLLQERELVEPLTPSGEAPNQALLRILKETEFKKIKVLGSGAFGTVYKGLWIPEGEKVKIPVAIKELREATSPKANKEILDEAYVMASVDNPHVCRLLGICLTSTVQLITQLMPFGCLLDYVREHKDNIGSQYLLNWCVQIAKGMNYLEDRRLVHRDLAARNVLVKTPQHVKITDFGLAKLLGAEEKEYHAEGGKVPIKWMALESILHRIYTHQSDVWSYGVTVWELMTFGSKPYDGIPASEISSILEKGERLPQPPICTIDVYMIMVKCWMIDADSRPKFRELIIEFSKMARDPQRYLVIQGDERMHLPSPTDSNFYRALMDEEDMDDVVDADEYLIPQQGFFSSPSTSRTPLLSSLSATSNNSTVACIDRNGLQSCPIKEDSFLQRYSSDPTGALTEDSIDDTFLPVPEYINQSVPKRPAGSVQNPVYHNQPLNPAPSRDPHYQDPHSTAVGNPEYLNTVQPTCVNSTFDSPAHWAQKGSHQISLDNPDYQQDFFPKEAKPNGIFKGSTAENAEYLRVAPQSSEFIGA
Assay type: cell-based
Method: A murine haematopoietic cell line is genetically modified so as to express functional human EGF-R. The proliferation of this cell line can therefore be stimulated by EGF.
The test is carried out as follows: • The cells are cultivated in RPMI/1640 medium. The proliferation is stimulated with 20 ng/ml of human EGF (Promega). To investigate the inhibitory activity of the compounds according to the invention these compounds are dissolved in 100% dimethylsulphoxide (DMSO) and added to the cultures in various dilutions, the maximum DMSO concentration being 1%. The cultures are incubated for 48 hours at 37° C.
In order to determine the inhibitory activity of the compounds according to the invention the relative cell number is measured in O.D. units using the Cell Titer 96™ AQueous Non-Radioactive Cell Proliferation Assay (Promega). The relative cell number is calculated as a percentage of the control and the concentration of active substance which inhibits the proliferation of the cells by 50% (IC50) is derived therefrom.

Row | IC50 | Structure (SMILES)
1 | 1 nM | COc1cc2ncnc(Nc3cccc(Cl)c3F)c2cc1O[C@H]1CC[C@H](N2CCC[C@H]2C(N)=O)CC1 [1(5) (trans compound), 4-[(3-chloro-2-fluoro-phenyl)amino]-6-{(S)-trans-4-[2-(aminocarbonyl)-pyrrolidin-1-yl]-cyclohexyloxy]-7-methoxy-quinazoline]
2 | 1 nM | COc1cc2ncnc(Nc3cccc(Cl)c3F)c2cc1O[C@H]1CC[C@H](N2CCN(C)C(=O)C2)CC1 [(36)]
3 | 1 nM | COc1cc2ncnc(Nc3cccc(Cl)c3F)c2cc1O[C@H]1CC[C@H](N2CCC(C#N)CC2)CC1 [(44)]

More lines, now with the values behind:

Row | Structure (SMILES) | IC50
4 | COc1cc2ncnc(Nc3cccc(Cl)c3F)c2cc1O[C@H]1CC[C@H](N2CCOCC2)CC1 [1 (trans compound), 4-[(3-chloro-2-fluoro-phenyl)amino]-6-[trans-4-(morpholin-4-yl)-cyclohexyloxy]-7-methoxy-quinazoline] | 1 nM
5 | COc1cc2ncnc(Nc3cccc(Cl)c3F)c2cc1O[C@H]1CC[C@H](N2CC[C@@H](O)C2)CC1 [1(1) (trans compound), 4-[(3-chloro-2-fluoro-phenyl)amino]-6-[(R)-trans-4-(3-hydroxy-pyrrolidin-1-yl)-cyclohexyloxy]-7-methoxy-quinazoline] | 1 nM
6 | COc1cc2ncnc(Nc3cccc(Cl)c3F)c2cc1O[C@H]1CC[C@H](N2CCNC(=O)C2)CC1 [1(3) (trans compound), 4-[(3-chloro-2-fluoro-phenyl)amino]-6-[trans-4-(3-oxo-piperazin-1-yl)-cyclohexyloxy]-7-methoxy-quinazoline] | 1 nM
